Data as given in patent US20230346773A1, “USE OF PCSK9 INHIBITOR IN PREPARATION OF PRODUCT FOR TREATING MULTIPLE DISEASES” (priority 2020, published 2023).
Marks after values point to notes of the source that are not given here.

Assays:
[1] = tested on: hair follicles / hair growth in depilated C57BL/6 mice; assay: Hair growth in C57BL/6 mice after rosin/paraffin depilation; type: in vivo
Description: SPF grade C57BL/6 mice were selected and numbered according to their weight. They were randomly divided into compound group 1 (skin applied with 2% R-IMPP solution), compound group 2 (skin applied with 2% PF 06446846 solution), and compound group 3 (skin applied with 2% SBC-115076 solution), compound group 4 (skin applied with 2% SBC-110736 solution), monoclonal antibody group 1 (PCSK9subcutaneous injection monoclonal antibody ab81041, 5 mg/kg·d), monoclonal antibody group 2 (Subcutaneous injection of Evolocumab, 5 mg/kg·d), monoclonal antibody group 3 (subcutaneous injection of Alirocumab, 5 mg/kg·d), PCSK9 RNA interference group-1 (skin applied with 2% PCSK9 small interfering RNA-1 solution), PCSK9 RNA interference Group-2 (skin applied with 2% PCSK9 small interfering RNA-2 solution), PCSK9 RNA interference group-3 (skin applied with 2% PCSK9 small interfering RNA-3 solution), polypeptide group (subcutaneous injection of Abcam company ab32727, 3 mg/kg·d), positive control group (skin applied with 2% minoxidil solution), negative control group (skin applied with 60% ethanol), and model control group (skin applied with 60% ethanol), 10 mice in each group, half male and half female. After the mice were anesthetized with ether, they were coated on the back with a mixture of rosin and paraffin (1:1) after hot melting, and then peeled off after it solidified and hardened. The back of the mouse was cleaned to be hairless and without injuries. The depilation area was about 3 cm×4 cm. From the 2nd day after depilation, the corresponding drugs were applied to the hair removal area, twice a day, 0.5 mL per animal each time, and subcutaneously injected once a week.
From the second day after application, observe the daily color change of the skin on the back of the mice to determine the growth state of the hair follicles and visually observe the hair growth in the depilation area, and score the new hair growth in the depilation area once a day. Five mice in each group were reserved for 40 days of visual observation, and the growth of back hair was recorded.
On the 17th day, five mice in each group were sacrificed by cervical dislocation. The samples were taken from the same part of the back parallel to the spine, fixed with 10% formaldehyde, dehydrated, embedded in paraffin, sectioned, stained with HE, and sealed with neutral gum. Then the histology of hair follicles was observed under light microscope, and morphological staging of hair follicles was performed. According to the international hair cycle scoring method, the hair follicles were scored as follows: 100 points for growth stage VI, 200 points for early regression, 300 points for middle regression, and 400 points for late regression. 50 hair follicles were randomly selected from each mouse, the cycle of the hair follicles in each group was determined, and the average hair cycle score and the percentage of hair follicles in the growth phase VI, early regression, middle regression, and late regression were calculated.

MMP-9 = assay: Bleomycin pulmonary fibrosis rat model: MMP-9 expression in lung tissue; type: in vivo, Wistar rats; details: after 14 days of treatment, tail vein 3 mg/kg·d, n = 6, x ± s
Description: (§1) Rats were numbered according to their body weight and divided into groups according to their body weight by random arrangement table method, and divided into small molecule compound treatment group (tail vein injection of PCSK9 small molecule compound inhibitor, 3 mg/kg·d), siPcsk9 treatment group (Tail vein injection of PCSK9 small interfering RNA, 3 mg/kg·d), monoclonal antibody treatment group (tail vein injection of PCSK9 monoclonal antibody, 3 mg/kg·d), peptide treatment group (tail vein injection of PCSK9 polypeptide inhibitor, 3 mg/kg·d), model group (injection of physiological saline into tail vein, 3 mg/kg·d), and blank control group (injection of physiological saline into tail vein, 3 mg/kg·d), 12 animals in each group, half male and half female. Rats in each group were anesthetized by intraperitoneal injection of 2% sodium pentobarbital ([…]), fixed on the operating table, and injected into the neck trachea. The control group was injected with normal saline (1.25 ml/kg), and the model group and each treatment group were injected with 5 U/mL bleomycin solution (5 mg/kg). […]
(§2) Peripheral venous blood was collected from the tail vein of animals in each group after modeling and 14 days after treatment, and the levels of superoxide dismutase (SOD) and catalase (CAT) in peripheral blood were detected. […]

TIMP-1 = assay: Bleomycin pulmonary fibrosis rat model: TIMP-1 expression in lung tissue; type: in vivo, Wistar rats; details: after 14 days of treatment, tail vein 3 mg/kg·d, n = 6, x ± s
Description: as §1, §2

rabbit ear acne model = assay: Rabbit ear acne model induced by 2% coal tar; type: in vivo, New Zealand rabbits; details: n = 10
From the text: The inner side of the right ear of the rabbits was taken as the observation area, the left ear of all rabbits was used as the self-negative control, and 95% alcohol was applied. The inner side of the right ear of the model group and the treatment group were smeared with 2% coal tar (Alfa Aesar China Company, 2% coal tar solution made with 95% alcohol), and evenly applied to the opening of the ear canal on the inner side of the rabbit ear with a sterile cotton swab in a range of about 2 cm×2 cm, once a day, 0.5 mL each time. Then the previous application was wiped with warm water. […] 18 hours after the last coating, the samples were sacrificed, fixed in 10% formaldehyde, embedded in paraffin, and stained with HE for histopathological analysis.
Histological grading standard of the acne model: […], according to histology. Grade 0 means that there are only loose keratinized cells in the infundibulum, without acne forming the “1”; grade 1: the skin on the surface of the rabbit ear is red, or a small amount of dense keratinized material is seen in the infundibulum of the hair follicle, and the infundibulum is not expanded “+”; grade 2: moderately dense keratinized material is seen in the infundibulum of the hair follicle, and it extends to the sebaceous glands, with the proliferation of sebaceous gland ducts, the infundibulum expands by “2+”; grade 3: extensive keratinized material in the hair follicle. Tight keratin embolism in hair follicles causes severe expansion of hair follicles, obvious hyperplasia of sebaceous duct epithelium, skin bulges and scars, and some sebaceous glands degenerate into “3+”.
Histopathological changes were observed under a microscope, and the thickness of 5 different epidermises on a slice was measured with the Biomias99 image analysis system, and the average value was calculated; the area of two hair follicles with the same position and the most complete structure and the diameter of four sebaceous glands were detected, and the average value of each was calculated, and then the data of the left and right external auditory canals of each group were subtracted to obtain the difference in the thickness of the epidermis, the difference in hair follicle area and the diameter of the sebaceous gland in the left and right ears of each rabbit.

[2] = hair removal area on the back of mice, after hair removal

Compound: COc1ccc(CCC(=O)N(c2nccc3ccccc23)[C@@H]2CCCNC2)cc1 [Compound group 1, R-IMPP]
- Time from hair growth to the same length as the hair in the non-experimental area ([1]; back hair removal area of mice): 11.14* days
- Time to grow new hair ([1]; back hair removal area of mice): 6.92* days
- Time to match the length of hair in the non-experimental area ([1]; back hair removal area of mice): 18.06* days
- Black skin duration ([1]; hair removal area on the back of mice): 14.29* days
- Skin black-turning time [1, 2]: 5.96* days
- Skin grayish-black-turning time [1, 2]: 20.25* days
- MMP-9 (MMP-9): 3.43 ± 0.34
- TIMP-1 (TIMP-1): 8.56 ± 0.58
- Skin thickness (rabbit ear acne model; rabbit ear epidermis): 0.2433 ± 0.0196 mm
- Hair follicle area (rabbit ear acne model; rabbit ear): 0.2726 ± 0.0842* mm^2
- Sebaceous gland diameter (rabbit ear acne model; rabbit ear): 0.0512 ± 0.0327 mm
- Histological grading of acne: number of animals graded − (rabbit ear acne model; right ear, grade 0: only loose keratinized cells in the infundibulum, without acne): 6
- Histological grading of acne: number of animals graded 1+ (rabbit ear acne model; right ear, grade 1: small amount of dense keratinized material, infundibulum not expanded): 3
- Histological grading of acne: number of animals graded 2+ (rabbit ear acne model; right ear, grade 2: moderately dense keratinized material extending to sebaceous glands, infundibulum expands): 1
- Histological grading of acne: number of animals graded 3+ (rabbit ear acne model; right ear, grade 3: extensive keratinized material, severe expansion of hair follicles): 0
